Data on 3 molecules can be found in paper PMC8838850, “Synthesis, Antimicrobial, Anti-Virulence and Anticancer Evaluation of New 5(4H)-Oxazolone-Based Sulfonamides” (Molecules, 2022).

≈ marks a conversion by molar mass, not a printed value.

The test system of one assay is S. aureus ATCC 6538. The assay is described as follows: Biofilm formation assay (crystal violet, light microscopy). The assay is classed as cell-based, Staphylococcus aureus. The following applies: sub-MIC (½ MIC), crystal violet method. Here is the method: Bacterial virulence is regulated via a quorum sensing (QS) system in an inducer/receptor manner. Diminishing bacterial virulence is an advantageous strategy to decrease the development of bacterial resistance. In this direction, anti-virulence and anti-QS activities have been explored in several studies as reviewed. The ability of P. aeruginosa or S. aureus to form biofilms was assayed in the absence or presence of tested compounds at sub-MIC. […] The experiment was conducted in triplicate and a one-way ANOVA test was employed to test the statistical significance using Graphpad Prism 8 software. The results were significant statistically where p values < 0.05. Moreover, microscopic visualization of biofilm under the effect of tested compounds was also performed by light microscopy. Representative images for the inhibitory effects on S. aureus and P. aeruginosa biofilm formation are shown (Figure 3C,D). The microscopic images show a marked reduction in both the thickness of and surface area covered by the biofilms in presence of the tested compound.
In order to evaluate the ability of the tested compounds to inhibit the biofilm formation, a strong biofilm forming P. aeruginosa ATCC 47,085 [47, 66] and S. aureus ATCC 6538 [67] strains were used. As described earlier, suspensions of tested strains were prepared from overnight cultures in TSB and their optical densities were adjusted to OD600 of 0.4 (1×10^8 CFU/mL). Aliquots of 10 μL of the suspensions were added to 1 mL amounts of fresh TSB with or without sub-MICs of tested compounds. […] The non-adherent cells were removed, the wells were washed with sterile PBS, and left to dry. The attached biofilm forming cells were fixed with methanol for 25 min and stained with 1% crystal violet for 30 min. The excess dye was washed out and the crystal violet staining adhered biofilm forming cells were eluted by glacial acetic acid (33%). The experiment was conducted in triplicate and the absorbance was measured at 590 nm. The absorbances of tested strains treated with different compounds were expressed as mean ± standard error of percentage change from untreated tested strains control. The percentages of biofilm inhibition were calculated employing the following formula: (absorbance of control—absorbance in presence of tested compounds)/absorbance of control.

Another assay concerns S. aureus. The assay is described as follows: Quantification of staphyloxanthin pigment. The class given is cell-based, Staphylococcus aureus. The following applies: sub-MIC. The method, then: Staphyloxanthin and intermediate carotenoids were extracted from S. aureus treated or untreated with compounds 5, 7 and 10 at sub-MIC as described. Bacterial cells were cultivated in TSB at 37 °C for 24 h, then cells were collected by centrifugation, and washed twice with phosphate-buffered saline (PBS). The obtained pellets were used to extract staphyloxanthin with methanol. The pellets (5 gm of) were resuspended in 20 mL methanol, and heated with gentle stirring at 55 °C in a water bath for 5 min. Then, the methanol extract liquids were cooled and centrifuged, and the absorbances of the produced staphyloxanthin were quantified spectrophotometrically at 450 nm (Biotek, Winooski, VT, USA). The experiment was repeated in triplicate, and the pigment absorbances in the presence of tested compounds were expressed as mean ± standard error of percentage change from untreated controls. The percentages of pigment production were calculated using the formula: (absorbance of control − absorbance in presence of tested compounds)/absorbance of control.

A further assay deals with P. aeruginosa. The assay is described as follows: Assay of protease production (casein substrate). The following applies: sub-MIC. The class given is cell-based, Pseudomonas aeruginosa. Here is the method:
The effect of compounds 5, 7 and 10 on the production of protease was evaluated using casein substrate as described earlier. Briefly, overnight cultures of P. aeruginosa and S. aureus were cultivated in LB broth in the presence or absence of compounds 5, 7 and 10 at ½ MIC for 24 h at 37 °C. The supernatants were collected, mixed (1:1) with 0.05 M casein in phosphate buffer (2%) and NaOH (0.1 M) at pH 7.0, and incubated for 15 min at 37 °C. The reaction was stopped by adding 2 mL of 0.4 M trichloroacetic acid for 30 min at 25 °C. Any precipitates were removed, and the optical densities were detected at 660 nm. The assays were performed in triplicate and the obtained optical densities of tested strains treated with compounds 5, 7 and 10 were expressed as mean ± standard error of percentage change from untreated tested strains control (positive control) and LB (negative control). The protease inhibition percentages were calculated: (O.D control—O.D tested compounds)/O.D control.

Assay [1] has as its system Panc-1. The assay is described as follows: SRB cellular proliferation assay. The class given is cell-based, human. The following applies: Homo sapiens, Panc-1 cells, mean ± SD (n = 3), read-out: IC50. The method, then:
(§1) The pancreatic human cancer cell lines BxPC-3 and Panc-1, the human hepatocellular carcinoma (HepG-2), and the normal immortalized pancreatic cell line HPDE, that were used in this study, were obtained from the American Type Culture Collection (Rockville, USA). Cell lines were cultured and treated with the tested compounds or dimethyl sulfoxide (DMSO) as previously described. Cells were cultivated in DMEM medium (Invitrogen, Carlsbad, CA, USA), supplemented with streptomycin, penicillin and fetal bovine serum (FCS) (Invitrogen, Carlsbad, CA, USA). The sulforhodamine B (SRB) assay was employed to assess the anti-proliferative effects of tested compounds on cancer cells. Cell lines were incubated and regularly treated with DMSO or increasing doses of tested compounds for 48 h. The cells were fixed with 10% trichloroacetic acid and stained with SRB fluorescent dye for 30 min. Then, the bounded SRB dye to cellular proteins was dissolved in 10 mM Tris base after washing excess dye with 1% acetic acid. The absorbance was measured at 510 nm in a reader (Biotek, Winooski, VT, USA).

Another assay deals with BxPC-3. The assay is described as follows: SRB cellular proliferation assay. The assay is classed as cell-based, human. The conditions noted are these: Homo sapiens, BxPC-3 cells, mean ± SD (n = 3), read-out: IC50. Here is the method:
as §1

In another assay the test system is HepG-2. The assay is described as follows: SRB cellular proliferation assay. The class given is cell-based, human. The conditions noted are these: Homo sapiens, HepG2, HepG-2 cells, mean ± SD (n = 3), read-out: IC50. The method, then:
as §1

Assay [2] concerns Panc-1. The assay is described as follows: Caspase-Glo 3/7 apoptosis assay. The assay is classed as cell-based, human. The conditions noted are these: ½ IC50, IC50 or 2 ×IC50 for 6 h, vs untreated controls. Here is the method: Caspases play critical roles in apoptosis. The apoptotic effects of selected compounds 5, 7 and 10 on pancreatic cell line Panc-1 were tested by quantification of caspase 3/7 using Caspase-Glo 3/7 assay kit (Promega, Fitchburg, MA, USA) as previously described. Briefly, cells were treated with or without compounds 5, 7 and 10 (½ IC50, IC50, or 2 ×IC50) for 6 h. The prepared reagent Caspase-Glo 3/7 was added in equal volumes to cells, gently mixed, and incubated for 60 min at room temperature. The luminescence was measured, and the activity of caspase was presented as a percentage change from the untreated control.

`Cc1ccc(S(=O)(=O)Nc2ccccc2C2=N/C(=C/c3ccccc3)C(=O)O2)cc1` [Compound 9a, (E)-N-(2-(4-Benzylidene-5-oxo-4,5-dihydrooxazol-2-yl)phenyl)-4-methylbenzenesulfonamide]: the “Inhibition of biofilm formation” value in the assay with S. aureus ATCC 6538 is “highest abilities to inhibit biofilm formation”. Further, the “Production of pigment staphyloxanthin” value in the assay on S. aureus was “significantly decreased the production”. Besides, the Production of protease entry in the assay on P. aeruginosa is “significantly reduced the production of protease”. Besides, the IC50 in the assay with Panc-1 [1] was found to be 11.9 ± 0.76 µg/mL (≈ 28.6 µM); in the assay with BxPC-3, 14.4 ± 0.73 µg/mL (≈ 34.4 µM); in the assay on HepG-2, 11 ± 2.39 µg/mL (≈ 26.2 µM). In addition, in the assay on Panc-1 [2], the “Apoptotic effect, caspase 3/7 levels” value is recorded as “triggered apoptosis through increasing the amounts of activated caspases 3/7”.
`COc1ccc(/C=C2/N=C(c3ccccc3NS(=O)(=O)c3ccc(C)cc3)OC2=O)cc1` [Compound 9b, (E)-N-(2-(4-(4-Methoxybenzylidene)-5-oxo-4,5-dihydrooxazol-2-yl)phenyl)-4-methylbenzenesulfonamide]: the “Inhibition of biofilm formation” value in the assay with S. aureus ATCC 6538 is reported as “highest abilities to inhibit biofilm formation”. The “Production of pigment staphyloxanthin” value in the assay with S. aureus is “significantly decreased the production”. Also, the Production of protease result with P. aeruginosa is “significantly reduced the production of protease”. In addition, the IC50 came out at 13.6 ± 1.16 µg/mL (≈ 30.4 µM) in the assay with Panc-1 [1], 14.9 ± 4.19 µg/mL (≈ 33.2 µM) in the assay on BxPC-3 and 8.53 ± 1.1 µg/mL (≈ 19 µM) in the assay with HepG-2. For the same molecule, in the assay with Panc-1 [2], the “Apoptotic effect, caspase 3/7 levels” value was “triggered apoptosis through increasing the amounts of activated caspases 3/7”.
`Cc1ccc(S(=O)(=O)Nc2ccccc2C2=N/C(=C/c3ccc([N+](=O)[O-])cc3)C(=O)O2)cc1` [Compound 9f, (E)-4-Methyl-N-(2-(4-(4-nitrobenzylidene)-5-oxo-4,5-dihydrooxazol-2-yl)phenyl)benzenesulfonamide]: the “Inhibition of biofilm formation” value with S. aureus ATCC 6538 is on record as “highest abilities to inhibit biofilm formation”. Also, in the assay on S. aureus, the “Production of pigment staphyloxanthin” value is listed as “significantly decreased the production”. In addition, the Production of protease entry with P. aeruginosa is reported as “significantly reduced the production of protease”. Moreover, the results for the IC50 in the assay with Panc-1 [1], with BxPC-3 and in the assay on HepG-2 were 12.6 ± 1.2 µg/mL (≈ 27.2 µM), 14.2 ± 1.87 µg/mL (≈ 30.6 µM) and 6.39 ± 1.25 µg/mL (≈ 13.8 µM), respectively. In addition, the “Apoptotic effect, caspase 3/7 levels” value with Panc-1 [2] is on record as “triggered apoptosis through increasing the amounts of activated caspases 3/7”.
